Test results as given in patent US20190090524A1, “NOVEL COMPOSITIONS FOR FLAVOR ENHANCEMENT” (INTERNATIONAL FLAVORS & FRAGRANCES INC., priority 2016, published 2019).

Assays:
Assay type in all cases: in vivo
[1] = Flavor of β-sitosterol solutions in water; details: 2.5 to 600 ppb
[2] = Alcohol impression in alcohol-free beer, panel comparison with alcohol solutions; details: 25 ppb in Brahma 0.0% alcohol free beer
Method: 1. […] 2. Alcohol solutions containing varying amounts of ethanol (Alcohol by Volume, “ABV”) were prepared as follows: • Alcohol solutions at 1% ABV, 2% ABV, 2.5% ABV, 3% ABV and 5% ABV were prepared by adding varying amounts of ethanol in Brahma 0.0% alcohol-free beer (Anheuser-Busch InBev); • Alcohol solution at 6% ABV was prepared by adding ethanol in water; and • Alcohol solutions with ABV ranging from 8.75% to 50% were prepared by diluting CAPTAIN MORGAN® Original Spiced Rum (35% ABV) (Diageo North America Inc.) in varying amounts of water. 3. Carbonated water containing carbon dioxide at 6.0, 7.2 and 8.0 g/L, respectively, were prepared.
A β-sitosterol solution (prepared in Example I) was added in Brahma 0.0% alcohol free beer to yield a final concentration of 25 ppb. The alcohol impression of the obtained sample was evaluated and compared by a panel with alcohol solutions at 1% ABV, 2% ABV, 2.5% ABV, 3% ABV and 5% ABV (prepared in Example I). 3-Sitosterol (25 ppb) provided an equal level of alcohol impression as the alcohol solution at 2.5% ABV.

[3] = Alcohol sensation intensity in 6% ABV solution, panel, scale 0 to 10; details: mean; 100 ppb in solution of 6% ABV; scale 0 to 10 (0=none, 4=medium, 7=high, 10=extremely high); p<0.01 vs 6% ABV alone
Method: (A) A β-sitosterol solution (prepared in Example I) was added to the alcohol solution at 6% ABV (prepared in Example I) to yield a final concentration of 100 ppb.
The alcohol sensation of the obtained sample was evaluated and compared by a panel with the alcohol solution at 6% ABV using an intensity scale of 0 to 10, where 0=none, 4=medium, 7=high and 10=extremely high. The intensity of alcohol sensation was rated. Mean (“Alcohol Intensity”) and standard error of the mean (“SE”, +) were obtained.

[4] = Alcohol sensation in 17.5% ABV solution with 3 to 500 ppb β-sitosterol
Method: (B) A series of β-sitosterol solutions (prepared in Example I) were added to the alcohol solution at 17.5% ABV (prepared in Example I) to yield final concentrations of β-sitosterol ranging from 3 to 500 ppb. The alcohol sensation of the obtained samples containing different amounts of β-sitosterol was evaluated.

[5] = Alcohol sensation of alcohol solutions with 25 ppb β-sitosterol, panel comparison with higher ABV solutions
Method: (C) A β-sitosterol solution (prepared in Example I) was added to alcohol solutions at 8.75% ABV, 17.5% ABV and 21.75% ABV (prepared in Example I), respectively, to yield a final concentration of 25 ppb. The alcohol sensation of the obtained samples was evaluated and compared by a panel with alcohol solutions at higher levels of ABV, respectively.

[6] = Carbonation effect intensity in carbonated water (7.2 g/L CO2), panel, scale 0 to 10; details: mean; 2.5 ppt in carbonated water 7.2 g/L CO2; scale 0 to 10 (0=none, 4=medium, 7=high, 10=extremely high); p<0.01 vs carbonated water alone
Method: (A) A β-sitosterol solution (prepared in Example I) was added to the carbonated water (7.2 g/L CO2) (prepared in Example I) to yield a final concentration of 2.5 ppt.
The carbonation effect of the obtained sample was evaluated and compared by a panel with the carbonated water using an intensity scale of 0 to 10, where 0=none, 4=medium, 7=high and 10=extremely high. The intensity of carbonation effect was rated. Mean (“Carbonation Intensity”) and standard error of the mean (“SE”, +) were obtained.

[7] = Carbonation sensation in carbonated water (7.2 g/L CO2) with 0.1 to 50 ppt β-sitosterol
Method: (B) A series of β-sitosterol solutions (prepared in Example I) were added to the carbonated water (7.2 g/L CO2) (prepared in Example I) to yield final concentrations ranging from 0.1 to 50 ppt. The carbonation sensation of the obtained samples containing different amounts of […] was evaluated.

[8] = Carbonation sensation in carbonated water of 6.0, 7.2 and 8.0 g/L CO2 with 2.5 ppt β-sitosterol; details: 2.5 ppt in carbonated water of 6.0, 7.2 and 8.0 g/L CO2, all samples
Method: (C) A β-sitosterol solution (prepared in Example I) was added to carbonated water of 6.0, 7.2 and 8.0 g/L CO2 (prepared in Example I), respectively, to yield a final concentration of 2.5 ppt. The carbonation sensation of the obtained samples was evaluated.

CC[C@H](CC[C@@H](C)[C@H]1CC[C@H]2[C@@H]3CC=C4C[C@@H](O)CC[C@]4(C)[C@H]3CC[C@]12C)C(C)C [β-sitosterol, (3S,8S,9S,10R,13R,14S,17R)-17-((1R,4R)-4-ethyl-1,5-dimethyl-hexyl)-10,13-dimethyl-2,3,4,7,8,9,10,11,12,13,14,15,16,17-tetradecahydro-1H-cyclopenta[a]phenanthren-3-ol]
flavor of β-sitosterol itself [1]: no noticeable flavor
alcohol impression, equal level as alcohol solution [2]: 2.5 % ABV
Alcohol Intensity [3]: 7.21
alcohol sensation ([4]; 3 ppb in alcohol solution at 17.5% ABV): slight but noticeable increase in alcohol sensation
enhancement of alcohol sensation ([4]; 200 ppb in alcohol solution at 17.5% ABV): reached a stable plateau
alcohol sensation ([4]; at a higher concentration than 3 ppb in alcohol solution at 17.5% ABV): clear increase of alcohol intensity
alcohol sensation at the level of an alcohol solution ([5]; 25 ppb in alcohol solution at 8.75% ABV): 10 % ABV
alcohol sensation at the level of an alcohol solution ([5]; 25 ppb in alcohol solution at 17.5% ABV): 22.5 % ABV
alcohol sensation at the level of an alcohol solution ([5]; 25 ppb in alcohol solution at 21.75% ABV): 35 % ABV
Carbonation Intensity [6]: 7.19
carbonation perception ([7]; 0.1 ppt in carbonated water 7.2 g/L CO2): slight increase in carbonation perception
carbonation perception ([7]; 2.5 ppt in carbonated water 7.2 g/L CO2): clear increase in carbonation perception
enhancement of carbonation effect ([7]; 5 ppt or higher in carbonated water 7.2 g/L CO2): reached a stable plateau
carbonation sensation [8]: provided enhancement of carbonation sensation
